According to patent US20160250285A1, “NEUROPROTECTIVE PEPTIDES” (priority 2013, published 2016):

Tested on: permanent middle cerebral artery occlusion (MCAO) stroke model
Assay: Rat permanent middle cerebral artery occlusion (MCAO) stroke model
Format: in vivo
Conditions: for neuroprotective activity in vivo: 1 μmol/kg intravenously 30 min post-MCAO
Description: Administration of peptide (DR9: rrrrrrrrr-NH2; R12, R15, R18, protamine sulphate; protamine) or vehicle (saline: 0.9% NaCl) treatment solution was performed at 30 min post-MCAO. The peptide treatment comprised DR9 in saline (600 μl) to provide an intravenous loading dose of 1 μmol/kg or 1000 nmol/kg given over 5-6 min via the right jugular vein.
This study was approved by the Animal Ethics Committee of the University of Western Australia. Male Sprague Dawley rats weighing 270 g to 350 g were kept under controlled housing conditions with 12 hour light-dark cycle with free access to food and water. Experimental animals were fasted overnight and subjected to permanent middle cerebral artery occlusion (MCAO) as follows.
Anaesthesia was induced with 4% isoflurane and a 2:1 mix of N2O and O2 via mask. Anaesthesia was maintained at 1.7-2% isoflurane. Cerebral blood flow (CBF) was monitored continuously using laser Doppler flowmetry (Blood FlowMeter, AD Instruments, Sydney, Australia). The probe was located 1 mm caudal and 4 mm lateral (right) to the bregma. A cannula was inserted in the right femoral artery to continuously monitor blood pressure and to provide samples for blood glucose and blood gas readings. Blood glucose was measured using a glucometer (MediSense Products, Abbott Laboratories, Bedford, Mass., USA) and blood gases were measured using a blood gas analyser (ABL5, Radiometer, Copenhagen, Denmark). Blood pressure was maintained at 80-100 mmHg. During surgery, rectal temperature was maintained at 37±0.5° C. and warming applied with a fan heater when necessary. For intravenous infusions, a length of PVC line primed with heparinised saline was tied in place in the right jugular vein, then externalised through a dorsal mid-scapular incision to a tether/swivel system (Instech Laboratories, Philadelphia, USA) designed to permit free movement.
The right common carotid artery (CCA) was exposed via a ventral neck incision. […] The isolated section of the ECA was ligated and cauterised to create a stump. The carotid body was removed and the pterygopalatine artery was ligated. A 4-0 nylon monofilament with a 0.39 mm diameter silicone tip (Doccol, Redlands, Calif., USA) was inserted through the ECA stump into the CCA and advanced rostrally into the internal carotid artery (ICA) until the laser Doppler flowmetry recorded a >30% decrease from baseline of cerebral blood flow. The monofilament was secured in two places (at the base of the ECA stump and on the ICA) for the remainder of the experiment. Animals were given post-operative analgesia consisting of pethidine (3 mg/kg intramuscular) and bupivacaine (1.5 mg/kg subcutaneously) at head and leg incision sites.
Post-surgery animals were allowed to recover in a climate-controlled chamber and their core body temperature monitored and maintained at 37±0.5° C. by a cooling/heating fan when required for 3-4 hours.
Animals were sacrificed 24 hours post-MCAO with intra-peritoneal injections of sodium pentobarbitone (900 mg/kg). […] Slices were scanned and images were analysed by an operator blind to treatment status using ImageJ 3rd edition (NIH, USA). The total infarct volume was determined by adding the areas of infarcted tissue on both sides of the 2 mm sections. These measured areas were multiplied by half slice thickness (1 mm), and corrected for cerebral oedema by multiplying the ratio of affected to normal hemisphere areas. […]

Compound	neuroprotective activity in vivo	reduction of infarct volume (brain damage) (1 μmol/kg IV 30 min post-MCAO, infarct volume 24 h post-MCAO (FIGS. 5, 27))
N=C(N)NCCC[C@H](NC(=O)[C@H](CCCNC(=N)N)NC(=O)[C@H](CCCNC(=N)N)NC(=O)[C@H](CCCNC(=N)N)NC(=O)[C@H](CCCNC(=N)N)NC(=O)[C@H](CCCNC(=N)N)NC(=O)[C@H](CCCNC(=N)N)NC(=O)[C@H](CCCNC(=N)N)NC(=O)[C@@H](N)CCCNC(=N)N)C(=O)O [Peptide R9]	possessed neuroprotective activity in vivo	
H-RRRRRRRRRRRRRRRRRR-OH [Peptide R18]	possessed neuroprotective activity in vivo	approximately 20%
